Where two headings read alike, the source gives them in different places.
Legend:
[1] = system: Leishmania donovani axenic amastigote parasites; assay: Leishmania donovani axenic amastigote proliferation assay; format: cell-based
Method: Leishmania Donovani Axenic Amastigote Proliferation Assay
Leishmania donovani axenic amastigote parasites are grown at 37° C., 5% CO2 in media made of RPMI 1640, 4 mM L-glutamine, 20% heat inactivated FBS, 100 units/ml of penicillin and 100 μg/ml of streptomycin, 23 μM Folic Acid, 100 μM Adenosine, 22 mM D-glucose, 25 mM MES. The pH of media is adjusted to 5.5 at 37° C. using HCl. 20 μL of media is first dispensed into 384 well plates and 100 nL of the compounds of invention in DMSO are added to the plate wells. At the same time control compounds and DMSO are added to plates to serve as the positive and negative controls, respectively. 40 μL of parasite culture (9600 parasites) are then added to the plate wells. The plates are then placed into incubators. After 2 day incubation, 20 μL of Cell TiterGlo (Promega) is added to the plate wells. The luminescence signal of each well is measured using the Envision reader (Perkin Elmer). The percentage inhibition of 50%, EC50, is calculated for each of the compounds.

[2] = system: L. donovani HU3 strain in mouse peritoneal macrophages; assay: Assay for proliferation of Leishmania parasites in mouse peritoneal macrophages; format: cell-based, Leishmania donovani; settings: Leishmania donovani, Peritoneal macrophage, read-out: L. donavani Macrophage EC50
Description: Assay for Proliferation of Leishmania Parasites
The activity of a compound according to the present invention for inhibition of parasitemai can be assessed by the parasite proliferation assay. The assay measures the increase in the parasite number in the assayed plate well using a DNA intercalating dye, SYBR Green I® dye (INVITROGEN) to stain Leishmania cell nuclei. It is understood that the assays illustrate the invention without in any way limiting the scope of the invention.
L. donovani HU3 strain is propagated by infecting BALB/c mice through tail vein injection with 10^7 Leishmania parasites. Infected mice are allowed to develop infection during 9-11 weeks post-infection. During this time, the parasites accumulate in the infected mouse spleens to large numbers, and the infected mice serve as the source of parasites for the in vitro measurement of compound efficacies. To assay a compound for anti-leishmanial activity, peritoneal macrophages isolated from non-infected BALB/c mice are seeded into 384-well plates at density 2×10^4 macrophages per well in […] of medium (RPMI 1640, 10% […], 10 mM HEPES, 1 mM sodium pyruvate, 1% Pen/Strep). Subsequently, the seeded plates are placed into an incubator set to maintain 37° C. temperature and atmosphere with 5% CO2. The next day, Leishmania parasites are isolated from the spleens of mice infected for 9-11 weeks and 4×10^5 isolated parasites in […] of the above media are added to each plate well. Plates are then returned into incubators and infection is allowed to proceed for 24 hours. After the infection of macrophages is completed, […] of compounds of the invention in the above medium, which also contains 5% DMSO, are added to plate wells containing infected macrophages. At the same time control compounds (miltefosine and amphotericin B) and DMSO are added to plates to serve as the positive and negative controls, respectively. After the compound addition, the plates are returned into incubator and cells infected with parasites are cultured for 5 days. At the end of cultivation, […] of 8% paraformaldehyde is added to plate wells and incubated for 15 min at room temperature. Following the incubation, the paraformaldehyde from plate wells is aspirated, and […] of PBS containing 0.2% Triton X-100 is added to wells. After 15 min incubation, the solution is aspirated from wells again, and replaced with SybrGreen Dye solution in PBS (1:125,000 dilution). Infected cells are imaged with Evotec Opera high-content microscope, and the number of parasites in well is determined by counting parasite nuclei visualized by staining with SybrGreen dye. The percentage inhibition of 50%, EC50, is calculated for each compound.
The inhibitory efficacy of the compounds of the invention in delaying the proliferation of L. donovani in mouse peritoneal macrophages is provided in Table I, infra.

[3] = axenic amastigotes in vitro, read-out: L. donovani amastigotes EC50

SMILES | EC50 [1, 3] | EC50 [2] | EC50 ([1]; 48 h, L. donovani axenic amastigotes, 2 day incubation, Cell TiterGlo luminescence, read-out: EC50)
O=C(Nc1ccc(Cl)c(-c2nc3ncc(Cl)cc3[nH]2)c1)c1ccco1 [Compound 2] | 1390 nM | 4000 nM | –
Cc1ccnc2nc(-c3cc(NC(=O)c4ccco4)ccc3Cl)[nH]c12 [Compound 3] | > 25000 nM | > 50000 nM | –
O=C(Nc1ccc(Cl)c(-c2nc3ncncc3[nH]2)c1)c1ccco1 [Compound 4] | 4200 nM | 25500 nM | –
Cc1cc2[nH]c(-c3cc(NC(=O)c4ccco4)ccc3Cl)nc2nc1C [Compound 5] | > 25000 nM | 49400 nM | –
CC(=O)Nc1ccccc1-c1cnc2nc(-c3cc(NC(=O)c4ccco4)ccc3Cl)[nH]c2c1 [Compound 8] | 750 nM | 1720 nM | –
COc1ncc(-c2cnc3nc(-c4cc(NC(=O)c5ccco5)ccc4Cl)[nH]c3c2)cn1 [Compound 9] | 450 nM | 1200 nM | –
O=C(Nc1ccc(Cl)c(-c2nc3ncc(-c4ccncc4)cc3[nH]2)c1)c1ccco1 [Compound 10] | 890 nM | 1120 nM | –
Nc1ccc(-c2cnc3nc(-c4cc(NC(=O)c5ccco5)ccc4Cl)[nH]c3c2)cc1 [Compound 12] | 258 nM | 400 nM | –
CC(C)CC(=O)Nc1ccc(-c2cnc3nc(-c4cc(NC(=O)c5ccco5)ccc4Cl)[nH]c3c2)cc1 [Compound 13, N-(4-chloro-3-{6-[4-(3-methylbutanamido)phenyl]-1H-imidazo[4,5-b]pyridin-2-yl}phenyl)furan-2-carboxamide] | 83 nM | 115 nM | ~80 nM
O=C(Nc1ccc(Cl)c(-c2nc3ncc(-c4cnn(CCN5CCOCC5)c4)cc3[nH]2)c1)c1ccco1 [Compound 14] | 3700 nM | 3140 nM | –
CN(C)Cc1ccc(-c2cnc3nc(-c4cc(NC(=O)c5ccco5)ccc4Cl)[nH]c3c2)cc1 [Compound 15] | 6100 nM | 720 nM | –
O=C(Nc1ccc(Cl)c(-c2nc3ncc(-c4ccc(CN5CCOCC5)cc4)cc3[nH]2)c1)c1ccco1 [Compound 16] | 2070 nM | 1630 nM | –
Nc1ncc(-c2cnc3nc(-c4cc(NC(=O)c5ccco5)ccc4Cl)[nH]c3c2)cn1 [Compound 17] | 480 nM | 1570 nM | –
CC(=O)Nc1ccc(-c2cnc3nc(-c4cc(NC(=O)c5ccco5)ccc4Cl)[nH]c3c2)cc1 [Compound 18] | 300 nM | 1480 nM | –
CN1CCN(c2ccc(-c3cnc4nc(-c5cc(NC(=O)c6ccco6)ccc5Cl)[nH]c4c3)cc2)CC1 [Compound 22] | 19000 nM | 4600 nM | –
Nc1ccccc1-c1cnc2nc(-c3cc(NC(=O)c4ccco4)ccc3Cl)[nH]c2c1 [Compound 23] | 320 nM | 370 nM | –
Nc1ccc(-c2cnc3nc(-c4cc(NC(=O)c5ccco5)ccc4Cl)[nH]c3c2)cn1 [Compound 24] | 165 nM | 2890 nM | –
O=C(Nc1ccc(Cl)c(-c2nc3ncc(-c4ccc(OC(F)(F)F)cc4)cc3[nH]2)c1)c1ccco1 [Compound 25] | 5600 nM | 9500 nM | –
O=C(Nc1ccc(Cl)c(-c2nc3ncc(-c4ccc(OCC5CCOCC5)cc4)cc3[nH]2)c1)c1ccco1 [Compound 26] | 680 nM | 2170 nM | –
O=C(Nc1ccc(Cl)c(-c2nc3ncc(-c4ccc5c(c4)OCO5)cc3[nH]2)c1)c1ccco1 [Compound 27] | 2660 nM | 24400 nM | –
CC(C)OC(=O)Nc1ccc(-c2cnc3nc(-c4cc(NC(=O)c5ccco5)ccc4Cl)[nH]c3c2)cc1 [Compound 31] | 177 nM | 450 nM | –
NC(=O)Nc1ccc(-c2cnc3nc(-c4cc(NC(=O)c5ccco5)ccc4Cl)[nH]c3c2)cc1 [Compound 32] | > 25000 nM | 15300 nM | –
COC(=O)c1ccc(-c2cnc3nc(-c4cc(NC(=O)c5ccco5)ccc4Cl)[nH]c3c2)cc1 [Compound 35] | 234 nM | 2110 nM | –

SMILES | EC50 [1, 3] | EC50 [2] | EC50 ([1]; 48 h, L. donovani axenic amastigotes, 2 day incubation, Cell TiterGlo luminescence, read-out: EC50)
CC(C)OC(=O)Nc1ccccc1-c1cnc2nc(-c3cc(NC(=O)c4ccco4)ccc3Cl)[nH]c2c1 [Compound 37] | 460 nM | 550 nM | –
C[C@@H](CO)NCc1cnc2nc(-c3cc(NC(=O)c4ccco4)ccc3Cl)[nH]c2c1 [Compound 38] | > 25000 nM | > 50000 nM | –
Cc1cc(-c2cnc3nc(-c4cc(NC(=O)c5ccco5)ccc4Cl)[nH]c3c2)cc(C)n1 [Compound 39] | 570 nM | 9600 nM | –
O=C(Nc1ccc(Cl)c(-c2nc3ncc(-c4ccc(OCCn5cccn5)cc4)cc3[nH]2)c1)c1ccco1 [Compound 40] | 610 nM | 970 nM | –
O=C(Nc1cccc(-c2nc3ncc(-c4ccc(OC(F)(F)F)cc4)cc3[nH]2)c1)c1ccco1 [Compound 41] | 5900 nM | 2200 nM | –
O=C1NC(=O)C(c2ccc(-c3cnc4nc(-c5cc(NC(=O)c6ccco6)ccc5Cl)[nH]c4c3)cc2)N1 (stereo not drawn) [Compound 42] | 1390 nM | 4000 nM | –
Cc1cc(COc2ccc(-c3cnc4nc(-c5cc(NC(=O)c6ccco6)ccc5Cl)[nH]c4c3)cc2)no1 [Compound 44] | 283 nM | 820 nM | –
O=C(Nc1ccc(-c2cnc3nc(-c4cc(NC(=O)c5ccco5)ccc4Cl)[nH]c3c2)cc1)NC1CC1 [Compound 45] | 1470 nM | 3400 nM | –
CC(C)C(=O)Nc1ccc(-c2cnc3nc(-c4cc(NC(=O)c5ccco5)ccc4Cl)[nH]c3c2)cc1 [Compound 53] | 112 nM | 154 nM | –
CNC(=O)c1ccc(-c2cnc3nc(-c4cc(NC(=O)c5ccco5)ccc4Cl)[nH]c3c2)cn1 [Compound 54] | 226 nM | 272 nM | –
O=C(Nc1ccc(Cl)c(-c2nc3ncc(-c4ccc(OCCN5CCCC5)cc4)cc3[nH]2)c1)c1ccco1 [Compound 55] | 2060 nM | 6700 nM | –
O=C(Nc1ccc(Cl)c(-c2nc3ncc(-c4ccc(-n5cccn5)cc4)cc3[nH]2)c1)c1ccco1 [Compound 56] | 3200 nM | 16000 nM | –
CNC(=O)Nc1ccc(-c2cnc3nc(-c4cc(NC(=O)c5ccco5)ccc4Cl)[nH]c3c2)cc1 [Compound 57] | 1830 nM | > 50000 nM | –
COCCOc1ccc(-c2cnc3nc(-c4cc(NC(=O)c5ccco5)ccc4Cl)[nH]c3c2)cc1 [Compound 60] | 800 nM | 3500 nM | –
CNC(=O)c1ccc(-c2cnc3nc(-c4cc(NC(=O)c5ccco5)ccc4Cl)[nH]c3c2)cc1 [Compound 64] | 680 nM | > 28900 nM | –
CN(C)c1ccc(-c2cnc3nc(-c4cc(NC(=O)c5ccco5)ccc4Cl)[nH]c3c2)cn1 [Compound 65] | 197 nM | 1580 nM | –
NS(=O)(=O)c1ccc(-c2cnc3nc(-c4cc(NC(=O)c5ccco5)ccc4Cl)[nH]c3c2)cc1 [Compound 66] | 4600 nM | > 39100 nM | –
CN(C)c1ccc(-c2cnc3nc(-c4cc(NC(=O)c5ccco5)ccc4Cl)[nH]c3c2)cc1 [Compound 67] | 2120 nM | 2500 nM | –
O=C(Nc1ccc(Cl)c(-c2nc3ncc(-c4ccc(N5CCCC5)cc4)cc3[nH]2)c1)c1ccco1 [Compound 68] | 2850 nM | 4900 nM | –
O=C(Nc1ccc(Cl)c(-c2nc3ncc(-c4ccc(OCCn5ccnc5)cc4)cc3[nH]2)c1)c1ccco1 [Compound 71] | 4000 nM | 1860 nM | –
Cc1c[nH]nc1-c1cnc2nc(-c3cc(NC(=O)c4ccco4)ccc3Cl)[nH]c2c1 [Compound 73] | 820 nM | 8200 nM | –
CC(C)Cc1cnc2nc(-c3cc(NC(=O)c4ccco4)ccc3Cl)[nH]c2c1 [Compound 76] | > 25000 nM | > 50000 nM | –
CC(C)c1cnc2nc(-c3cc(NC(=O)c4ccco4)ccc3Cl)[nH]c2c1 [Compound 77] | 6700 nM | 35000 nM | –
